# Results from patent US9180115B2, “Cyclohexylamines” (Asana Biosciences, LLC, priority 2011, dated 2015).
# System: sodium channel response in hTRPV1-N1E115 cells
# Test: FLIPR membrane potential assay of sodium channel response in hTRPV1-N1E115 cells with or without heat (47° C.) activation
# Type: cell-based
# Conditions: for hTRPV1-N1E Nav 0.1 mM (% inhibition) 25° C. / hTRPV1-N1E Nav 1 mM (% inhibition) 25° C.: 25° C. (no heat activation); for IC50: 47° C., read-out: hTRPV1-N1E IC50 (μM) 47° C.; for hTRPV1-N1E Nav 0.1 mM (% inhibition) 47° C. / hTRPV1-N1E Nav 1 mM (% inhibition) 47° C.: 47° C. (heat activated)
# Source text: In one embodiment, a modified FLIPR® (Fluorometric Imaging Plate Reader) based assay system was developed which is capable of discriminating between non-specific versus hTRPV1-mediated entry of test compounds. Advantageously, the assay system utilizes heat activated opening of hTRPV1 channels followed by an assessment of internal sodium channel block. The assay allows a permanently charged compound to selectively enter through opened hTRPV1 channels and that compound's potency in inhibiting sodium channels from the cytoplasm side of the same cell can be assessed and quantified.
# The test compounds are diluted in the Assay Buffer and added to each well of a specific 384-well ‘compound plate’, which serves as a source plate for compound addition using the FLIPR® platform. The concentration of compounds in the compound-plate was adjusted to achieve the desired final concentration when added to the cells in the ‘cell-plate’. After completion of the dye incubation period, the dye loaded cell-plates and the compound source plates are inserted into the FLIPR® Tetra device with a 384 FLIPR® tip box (Molecular Devices, Inc.) according to manufacturer's instructions. The compounds are robotically added to the dye loaded cell-plates using software integral to the FLIPR® Tetra instrument.
# Immediately following compound addition, hTRPV1 is activated, in one of the duplicate cell plates, by heating. Specifically, entire multi-well plate containing the compound-cells mixture is incubated at 47° C. for 10 minutes, after which they are returned to room temperature (about 25° C.) for a further 30 minutes. Heat activation of hTRPV1 was omitted from the replicate cell plate which was simply maintained at room temperature for the entire 40 minutes.
# A membrane potential response is elicited in the dye- and compound-loaded cells by the addition of veratridine which is a known sodium channel ‘agonist’. As illustrated in an example herein, an agonist plate containing veratridine (Sigma) is prepared in advance and is inserted into suitable devices such as, e.g., the FLIPR® TETRA device for a “2nd addition” as instructed by the manufacturer. The concentration of veratridine in the ‘agonist plate’ was adjusted to achieve a final concentration of 100 μM when added to the cells in the cell-plate. Final concentrations of veratridine greater or lesser than 100 μM may also be used but the signal measured by the FLIPR® TETRA device or another suitable device may vary accordingly.
# The exposure of the cells in the cell-plate to veratridine induces sodium channels in the cells to open and the resulting ion flux produces a membrane potential depolarization that is detected as a fluorescence signal by the FLIPR® Tetra Device. The activity of test compounds is determined by their ability to attenuate the veratridine-induced fluorescence signal, the most promising compounds are those that show an enhanced activity in the heat-activated cell plate over the non-heat-activated cell plate. This differential activity reflects enhanced compound uptake via the heat activated and open hTRPV1 channels and rests on the fact that sodium channel block requires test compounds to act from the cytoplasmic side of the cell membrane.
# In vitro assays were developed for assessing the inhibition of sodium channel response with compounds following stimulation by heat (47° C.) in cells expressing hTRPV1.
# (v) Membrane potential Assay to Assess Sodium Channel Function in hTRPV1-Expressing Cells • Cells were plated at 5000 per 50 μL [DMEM+10% FBS+300 μg/mL H\hygromycin] per well, in a 384 clear bottom poly-D-lysine coated plate and incubated at 37° C. and 5% CO2 for 48 hours. On the day of the assay, media were discarded gently and 30 μL of the dye [FMP blue dye was prepared in assay buffer] per well was added and dye-loading was allowed to proceed for 20 min at room temperature. […]
Structure (SMILES),hTRPV1-N1E Nav 0.1 mM (% inhibition) 25° C.,hTRPV1-N1E Nav 1 mM (% inhibition) 25° C.,IC50 [µM],hTRPV1-N1E Nav 0.1 mM (% inhibition) 47° C.,hTRPV1-N1E Nav 1 mM (% inhibition) 47° C.
"Cc1cc(C)c(C(=O)O[C@H](C)C[N+](C)(C)C2CCCCC2)c(C)c1.[I-] [Example 25, (R)-N,N-Dimethyl-N-[2-((2,4,6-trimethylbenzoyl)oxy)propyl] cyclohexanaminium iodide]",48 (N = 4) %,89 (N = 4) %,10 to 100,,
"CC(C[N+](C)(C)C1CCCCC1)OC(=O)c1ccc(Cl)cc1.[I-] (stereo not shown) [Example 13, N-[2-((4-Chlorobenzoyl)oxy)propyl]-N,N-dimethyl-cyclohexanaminium iodide]",0 (N = 4) %,51 (N = 4) %,10 to 100,44 (N = 4) %,89 (N = 4) %
"Cc1ccccc1C(=O)OC(C)C[N+](C)(C)C1CCCCC1.[I-] (stereo not shown) [Example 11, N,N-Dimethyl-N-[2-((2-methylbenzoyl)oxy)propyl] cyclohexanaminium iodide]",16 (N = 4) %,,100 to 1000,40 (N = 4) %,
"CC(C[N+](C)(C)C1CCCCC1)OC(=O)c1ccc(F)cc1C(F)(F)F.[I-] (stereo not shown) [Example 15, N-[2-((4-Fluoro-2-(trifluoromethyl)benzoyl)oxy)propyl]-N,N-dimethyl-cyclohexanaminium iodide]",6 (N = 4) %,59 (N = 4) %,100 to 1000,45 (N = 4) %,92 (N = 4) %
"CC(C[N+](C)(C)C1CCCCC1)OC(=O)c1cc(Cl)cc(Cl)c1.[I-] (stereo not shown) [Example 19, N-[2-((3,5-Dichlorobenzoyl)oxy)propyl]-N,N-dimethyl-cyclohexanaminium iodide]",25 (N = 4) %,12 (N = 4) %,10 to 100,,52 (N = 4) %
"CC(C[N+](C)(C)C1CCCCC1)OC(=O)c1ccccc1C(F)(F)F.[I-] (stereo not shown) [Example 17, N-[2-((2-(Trifluoromethyl)benzoyl)oxy)propyl]-N,N-dimethylcyclo-hexanaminium iodide]",4 (N = 4) %,72 (N = 4) %,100 to 1000,54 (N = 4) %,96 (N = 4) %
"CC(C[N+](C)(C)C1CCCCC1)OC(=O)c1cccc(F)c1.[I-] (stereo not shown) [Example 14, N-[2-((3-Fluorobenzoyl)oxy)propyl]-N,N-dimethyl-cyclohexanaminium iodide]",0 (N = 4) %,10 (N = 4) %,,31 (N = 4) %,66 (N = 4) %
"CC(C[N+](C)(C)C1CCCCC1)OC(=O)c1ccccc1Cl.[I-] (stereo not shown) [Example 9, N-[2-((2-Chlorobenzoyl)oxy)propyl]-N,N-dimethyl-cyclohexanaminium iodide]",16 (N = 4) %,,,67 (N = 4) %,
"Cc1cccc(C)c1C(=O)OC(C)C[N+](C)(C)C1CCC(C)CC1.[I-] (stereo not shown) [Example 36, N-[2-((2,6-Dimethylbenzoyl)oxy)propyl]-N,N,4-trimethylcyclo-hexanaminium iodide]",50 (N = 4) %,84 (N = 4) %,10 to 100,83 (N = 4) %,95 (N = 4) %
"Cc1ccsc1C(=O)OC(C)C[N+](C)(C)C1CCCCC1.[I-] (stereo not shown) [Example 37, N,N-Dimethyl-N-[2-((3-methylthiophene-2-carbonyl)oxy)propyl] cyclohexanaminium iodide]",15 (N = 4) %,20 (N = 4) %,,31 (N = 4) %,70 (N = 4) %
